The nature of this assay: Displacement of [3H]Ro151788 from GABA-A receptor in Wistar rat cerebellar membrane after 1 hr by liquid scintillation counting. It is filed as cell membranes, Cerebellum.

The Ki is the dissociation constant of the complex between target and ligand, obtained from inhibition or displacement. A low value points to a stronger hold on the target. In the case of `O=C(NCCCF)c1c[nH]c2ccc(Cc3ccccc3)cc2c1=O`, the Ki worked out at 0.13 nM.

The record behind these values is ChEMBL document CHEMBL1208702, “Use of 2-[(18)F]fluoroethylazide for the Staudinger ligation - Preparation and characterisation of GABA(A) receptor binding 4-quinolones” (Bioorg Med Chem Lett, 2010).
